In US10472356B2, “Bicyclic ketone sulfonamide compounds” (AMGEN INC., priority 2015, dated 2019):

Key:
Format in all cases: cell-based
[1] = target: T1, human Nav1.7 (Homo sapiens, UniProt Q15858); test: Nav 1.7 In Vitro PatchXpress (PX) Assay; details: HEK 293 cells stably transfected with human Nav1.7; PatchXpress whole cell voltage clamp; partially inactivated state (holding potential yielding 20 to 50% inactivation); read-out: hNav1.7 PX IC50
T1 construct: expressed in transfected cells; host or cells: HEK293
Summary of the method: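 Whole-cell voltage clamp on HEK 293 cells stably expressing human Nav1.7 (automated patch), holding potential giving 20–50% inactivation; 20 ms pulses to −10 mV at 0.1 Hz. Single compound concentration applied 3 min, peak current inhibition measured; IC50 fitted from 3–5 cells per concentration.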

[2] = target: T1, human Nav1.7; test: Nav 1.7 IWQ In Vitro Assay (IonWorks Quattro); details: HEK293 cells stably transfected with human Nav 1.7; IonWorks Quattro population patch-clamp; 26th pulse to −20 mV, 5 Hz; cells unclamped 5 to 8 minutes with compound; read-out: hNav1.7 IWQ IC50
Summary of the method: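 Population patch clamp on HEK293 cells stably expressing human Nav 1.7: held at −110 mV for three seconds, then 26 pulses of 150 msec to −20 mV at 5 Hz, before and after 5-8 min with one compound concentration. Percent inhibition from peak current at the 26th pulse.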

[3] = target: T1, human Nav1.7; test: Nav 1.7 IWB In Vitro Assay (IonWorks Barracuda); details: HEK293 cells stably transfected with human Nav 1.7; IonWorks Barracuda population patch-clamp; cells clamped to −20 mV for 4 minutes with compound; 26th pulse; read-out: hNav1.7 IWB IC50
Summary of the method: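 Population patch clamp of HEK293 cells stably expressing human Nav 1.7: 26 pulses to −20 mV (150 ms, 5 Hz) from −110 mV, then 4 min at −20 mV with compound, 3 s recovery at −110 mV and the train repeated. % inhibition of 26th-pulse peak current vs no compound; IC50 from concentration-response curves.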

T1 sequence (Q15858 whole entry): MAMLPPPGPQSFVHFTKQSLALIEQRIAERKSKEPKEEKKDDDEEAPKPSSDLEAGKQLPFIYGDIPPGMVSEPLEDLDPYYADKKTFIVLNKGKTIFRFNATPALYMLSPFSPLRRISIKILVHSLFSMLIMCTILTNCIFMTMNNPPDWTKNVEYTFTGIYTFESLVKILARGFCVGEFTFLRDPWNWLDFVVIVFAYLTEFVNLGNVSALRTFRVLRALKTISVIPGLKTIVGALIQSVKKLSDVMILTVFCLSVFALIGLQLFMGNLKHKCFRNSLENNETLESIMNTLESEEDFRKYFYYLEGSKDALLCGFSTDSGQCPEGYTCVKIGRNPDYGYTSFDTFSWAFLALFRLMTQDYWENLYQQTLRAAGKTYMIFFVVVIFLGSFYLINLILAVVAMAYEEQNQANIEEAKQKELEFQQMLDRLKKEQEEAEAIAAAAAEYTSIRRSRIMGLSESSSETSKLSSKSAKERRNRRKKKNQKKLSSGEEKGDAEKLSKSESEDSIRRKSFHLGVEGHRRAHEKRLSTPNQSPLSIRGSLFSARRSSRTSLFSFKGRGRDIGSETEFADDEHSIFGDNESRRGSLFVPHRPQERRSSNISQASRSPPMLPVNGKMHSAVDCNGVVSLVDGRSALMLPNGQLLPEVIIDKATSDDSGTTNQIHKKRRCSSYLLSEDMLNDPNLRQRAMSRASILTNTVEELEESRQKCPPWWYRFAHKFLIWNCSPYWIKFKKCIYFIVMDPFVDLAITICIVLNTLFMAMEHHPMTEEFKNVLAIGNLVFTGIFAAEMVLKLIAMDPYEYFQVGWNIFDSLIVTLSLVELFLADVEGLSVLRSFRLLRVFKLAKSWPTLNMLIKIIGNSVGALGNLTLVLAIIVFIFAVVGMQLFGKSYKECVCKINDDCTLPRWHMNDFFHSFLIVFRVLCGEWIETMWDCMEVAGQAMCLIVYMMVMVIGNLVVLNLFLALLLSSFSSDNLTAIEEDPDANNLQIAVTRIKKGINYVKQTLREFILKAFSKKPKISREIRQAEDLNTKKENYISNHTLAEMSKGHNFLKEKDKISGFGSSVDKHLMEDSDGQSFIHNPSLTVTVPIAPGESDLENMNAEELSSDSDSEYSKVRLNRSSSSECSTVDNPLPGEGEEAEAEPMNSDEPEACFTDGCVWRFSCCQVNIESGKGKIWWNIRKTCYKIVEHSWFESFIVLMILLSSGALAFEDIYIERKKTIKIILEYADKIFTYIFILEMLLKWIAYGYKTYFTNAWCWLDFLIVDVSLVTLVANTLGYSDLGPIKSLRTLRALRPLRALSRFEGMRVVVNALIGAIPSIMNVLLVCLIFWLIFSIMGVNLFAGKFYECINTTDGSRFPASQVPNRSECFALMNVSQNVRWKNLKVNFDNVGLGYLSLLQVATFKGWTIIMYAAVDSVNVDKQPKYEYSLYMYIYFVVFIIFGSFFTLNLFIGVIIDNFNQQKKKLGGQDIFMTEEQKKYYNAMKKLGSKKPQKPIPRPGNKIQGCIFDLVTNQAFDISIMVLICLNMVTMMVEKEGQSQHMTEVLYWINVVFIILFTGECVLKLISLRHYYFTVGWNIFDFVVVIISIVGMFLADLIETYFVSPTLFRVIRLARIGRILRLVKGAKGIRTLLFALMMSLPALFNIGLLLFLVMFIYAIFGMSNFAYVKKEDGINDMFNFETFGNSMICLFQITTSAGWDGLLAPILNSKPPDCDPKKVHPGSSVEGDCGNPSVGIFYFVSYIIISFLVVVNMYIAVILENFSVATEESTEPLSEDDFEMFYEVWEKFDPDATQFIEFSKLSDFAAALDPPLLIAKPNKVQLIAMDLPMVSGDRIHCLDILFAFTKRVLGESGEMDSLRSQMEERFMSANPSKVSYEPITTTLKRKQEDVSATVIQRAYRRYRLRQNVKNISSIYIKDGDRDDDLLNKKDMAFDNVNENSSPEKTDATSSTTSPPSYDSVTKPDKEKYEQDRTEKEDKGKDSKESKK

Row | IC50 [1] [nM] | IC50 [2] [nM] | IC50 [3] [nM] | SMILES
1 | 74.2 | 2.4 | 5.3 | COc1cc(-c2cccc(OCC(F)(F)F)c2)c(F)cc1-n1c2c(ccc1=O)CN(S(=O)(=O)Nc1cccnn1)CC2 [Example 68, P-1-(2-fluoro-5-methoxy-3′-(2,2,2-trifluoroethoxy)-[1,1′-biphenyl]-4-yl)-2-oxo-N-(pyridazin-3-yl)-1,2,7,8-tetrahydro-1,6-naphthyridine-6(5H)-sulfonamide]
2 | 29.4 | 2.8 | 6.9 | COc1cc(-c2ccc(F)c(C(F)(F)F)c2)c(F)cc1-n1c2c(ccc1=O)CN(S(=O)(=O)Nc1cccnn1)CC2 [Example 71, P-1-(2,4′-difluoro-5-methoxy-3′-(trifluoromethyl)-[1,1′-biphenyl]-4-yl)-2-oxo-N-(pyridazin-3-yl)-1,2,7,8-tetrahydro-1,6-naphthyridine-6(5H)-sulfonamide]
3 | 40.5 | 1.3 | 4.4 | COc1cc(-c2cc(Cl)cc(OC(F)(F)F)c2)c(F)cc1-n1c2c(ccc1=O)CN(S(=O)(=O)Nc1cccnn1)CC2 [Example 77, P-1-(3′-chloro-2-fluoro-5-methoxy-5′-(trifluoromethoxy)-[1,1′-biphenyl]-4-yl)-2-oxo-N-(pyridazin-3-yl)-1,2,7,8-tetrahydro-1,6-naphthyridine-6(5H)-sulfonamide]
4 | 19.9 | 1.3 | 8.8 | COc1cc(Cl)cc(-c2cc(OC)c(-n3c4c(ccc3=O)CN(S(=O)(=O)Nc3ccon3)CC4)cc2F)c1 [Example 89, P-1-(3′-chloro-2-fluoro-5,5′-dimethoxy-[1,1′-biphenyl]-4-yl)-N-(isoxazol-3-yl)-2-oxo-1,2,7,8-tetrahydro-1,6-naphthyridine-6(5H)-sulfonamide]
5 | 164 | 3.2 | 36.5 | COc1cc(OC)cc(-c2cc(OC)c(-n3c4c(ccc3=O)CN(S(=O)(=O)Nc3ccon3)CC4)cc2F)c1 [Example 90, P-1-(2-fluoro-3′,5,5′-trimethoxy-[1,1′-biphenyl]-4-yl)-N-(isoxazol-3-yl)-2-oxo-1,2,7,8-tetrahydro-1,6-naphthyridine-6(5H)-sulfonamide]
